In patent US8722849B2, “Polypeptides” (Novo Nordisk A/S, priority 2011, dated 2014):
Values after ≈ are worked out from the molar mass of the structure shown. Like-named read-outs stand apart in the source and are kept apart here. Starred links: 1 amine or outer side, 2 acyl side, 3 side chain; linkers in the order of their positions; H or OH if unused. Positions of bridges follow the written chain, without caps; N, C: chain ends. Residues, ends and D or L forms follow the SMILES beside them. *: point of attachment. C20 diacid = O=C(O)CCCCCCCCCCCCCCCCCCC(=O)*; C18 diacid = O=C(O)CCCCCCCCCCCCCCCCC(=O)*; γGlu = O=C(O)[C@H](CCC(=O)[*:2])N[*:1]

Tests used:
[1] = molecular target: T1, human amylin receptor (amylin 3(a) receptor: human calcitonin receptor + RAMP-3) (Homo sapiens, UniProt O60896+P30988); assay: Assay (II)a functional CRE-luciferase assay, human amylin receptor; format: cell-based; conditions: Table 2; BHK amylin 3(a)-receptor/CRE-luc cells
T1 construct: expressed in transfected cells; host or cells: BHK570
T1 sequence (P30988 25-474): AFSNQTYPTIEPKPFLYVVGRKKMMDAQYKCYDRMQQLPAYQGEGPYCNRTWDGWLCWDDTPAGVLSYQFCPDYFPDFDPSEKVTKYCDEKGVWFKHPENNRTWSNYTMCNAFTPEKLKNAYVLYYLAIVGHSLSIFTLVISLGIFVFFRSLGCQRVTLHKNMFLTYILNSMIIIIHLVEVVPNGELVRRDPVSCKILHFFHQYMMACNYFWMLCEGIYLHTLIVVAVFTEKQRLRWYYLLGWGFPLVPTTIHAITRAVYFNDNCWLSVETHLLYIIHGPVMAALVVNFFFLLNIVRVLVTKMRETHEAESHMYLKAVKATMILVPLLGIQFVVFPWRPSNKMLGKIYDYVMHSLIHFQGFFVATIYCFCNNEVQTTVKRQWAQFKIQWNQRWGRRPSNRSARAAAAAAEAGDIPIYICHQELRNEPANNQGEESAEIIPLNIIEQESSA
T1 sequence (O60896 24-148 partner): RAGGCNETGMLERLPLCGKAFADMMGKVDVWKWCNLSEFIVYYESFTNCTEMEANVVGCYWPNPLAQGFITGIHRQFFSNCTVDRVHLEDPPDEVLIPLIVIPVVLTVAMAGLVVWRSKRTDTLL

[2] = molecular target: T2, human calcitonin receptor (Homo sapiens, UniProt P30988); assay: Assay (II)a functional CRE-luciferase assay, human calcitonin receptor; format: cell-based; conditions: Table 7; human calcitonin (CTa) receptor
T2 construct: expressed in transfected cells; host or cells: BHK570
T2 sequence (P30988 25-474): T1 sequence (P30988 25-474)

[3] = Assay (IV) determination of solubility; format: physicochemical
In short: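 Polypeptide in water (~500 nmol/ml stock) was mixed 1:1 with 100 mM buffers from pH 3.0 to 8.0 (glycylglycine pH 3.0–5.0; bistrispropane pH 6.0–8.0). After 18 hours at room temperature, samples were centrifuged and the polypeptide remaining in solution was quantified by HPLC.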

[4] = Assay (III) ThT fibrillation assay for physical stability; format: physicochemical; conditions: ThT fibrillation assay
In short: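 Freshly prepared formulations, pH-adjusted, with 1 μM ThT; four or eight replicates incubated at 37 °C under 960 rpm orbital shaking. Fluorescence (ex 444/em 485 nm) read every 20 min; […]. Peptide concentration measured by RP-HPLC before and after the run.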

[5] = bistrispropane buffer, pH 6, pH 6.0, read-out: Solubility pH 6.0
[6] = bistrispropane buffer, pH 6.5, pH 6.5, read-out: Solubility pH 6.5
[7] = bistrispropane buffer, pH 7, pH 7.0, read-out: Solubility pH 7.0
[8] = bistrispropane buffer, pH 7.5, pH 7.5, read-out: Solubility pH 7.5
[9] = bistrispropane buffer, pH 8, pH 8.0, read-out: Solubility pH 8.0
[10] = glycylglycine buffer, pH 3, pH 3.0, read-out: Solubility pH 3.0
[11] = glycylglycine buffer, pH 4, pH 4.0, 18 hours at room temperature, Table 2, read-out: Solubility pH 4.0
[12] = glycylglycine buffer, pH 4, pH 4.0, read-out: Solubility pH 4.0
[13] = glycylglycine buffer, pH 5, pH 5.0, read-out: Solubility pH 5.0

| EC50 [1] [nM] | EC50 [2] [nM] | solubility at 18 h [3, 5] [µM] | solubility at 18 h [3, 6] [µM] | solubility at 18 h ([3]; bistrispropane buffer, pH 7, pH 7.0, 18 hours at room temperature, Table 3, read-out: Solubility pH 7.0) [µM] | solubility at 18 h [3, 7] [µM] | solubility at 18 h [3, 8] [µM] | solubility at 18 h [3, 9] [µM] | solubility at 18 h [3, 10] [µM] | solubility at 18 h [3, 11] [µM] | solubility at 18 h [3, 12] [µM] | solubility at 18 h [3, 13] [µM] | ThT pH 4.0 lag time (h) [4] [h] | ThT pH 4.0 lag time [4] [h] | Structure (SMILES) |
| --- | --- | --- | --- | --- | --- | --- | --- | --- | --- | --- | --- | --- | --- | --- |
| 0.102 | 0.169 | > 200 | > 200 | > 200 | > 200 | > 200 | > 200 | > 200 | > 200 | > 200 | > 200 | 10 | – | CC[C@H](C)[C@H](NC(=O)[C@@H]1CCCN1C(=O)CNC(=O)[C@H](Cc1ccccc1)NC(=O)[C@H](CC(N)=O)NC(=O)[C@H](CC(N)=O)NC(=O)[C@H](CO)NC(=O)[C@H](CO)NC(=O)[C@H](Cc1c[nH]cn1)NC(=O)[C@H](Cc1c[nH]cn1)NC(=O)[C@H](CC(C)C)NC(=O)[C@H](Cc1ccccc1)NC(=O)[C@H](CCC(=O)O)NC(=O)[C@H](C)NC(=O)[C@H](CC(C)C)NC(=O)[C@H](CCCNC(=N)N)NC(=O)[C@H](CCC(N)=O)NC(=O)[C@@H](NC(=O)[C@H](C)NC(=O)[C@@H]1CSSC[C@H](NC(=O)[C@H](CCCCN)NC(=O)[C@H](CCC(=O)O)NC(=O)CC[C@H](NC(=O)CCCCCCCCCCCCCCCCC(=O)O)C(=O)O)C(=O)N[C@@H](CC(N)=O)C(=O)N[C@@H]([C@@H](C)O)C(=O)N[C@@H](C)C(=O)N[C@@H]([C@@H](C)O)C(=O)N1)[C@@H](C)O)C(=O)N[C@@H](CC(C)C)C(=O)N1CCC[C@H]1C(=O)N1CCC[C@H]1C(=O)N[C@H](C(=O)N[C@@H](CC(N)=O)C(=O)N[C@H](C(=O)NCC(=O)N[C@@H](CO)C(=O)N[C@@H](Cc1c[nH]cn1)C(=O)N[C@H](C(=O)N[C@@H](Cc1ccc(O)cc1)C(N)=O)[C@@H](C)O)C(C)C)[C@@H](C)O [Example 60, N-alpha-[(S)-4-Carboxy-4-(17-carboxyheptadecanoylamino)butyryl]-Glu-[Glu14,His17,His35]-pramlintide] ({C18 diacid-γGlu}-EKCNTATCATQRLAEFLHHSSNNFGPILPPTNVGSHTY-NH2; disulfide 3-8) |
| 0.558 | 0.632 | 1 (≈ 4.73 µg/mL) | 2 (≈ 9.45 µg/mL) | – | 75 (≈ 355 µg/mL) | > 200 | > 200 | > 200 | > 200 | > 200 | > 200 | 2 | – | CC[C@H](C)[C@H](NC(=O)[C@@H]1CCCN1C(=O)CNC(=O)[C@H](Cc1ccccc1)NC(=O)[C@H](CC(N)=O)NC(=O)[C@H](CO)NC(=O)[C@H](CO)NC(=O)[C@H](CO)NC(=O)[C@H](Cc1c[nH]cn1)NC(=O)[C@H](Cc1c[nH]cn1)NC(=O)[C@H](CC(C)C)NC(=O)[C@H](Cc1ccccc1)NC(=O)[C@H](CCC(=O)O)NC(=O)[C@H](C)NC(=O)[C@H](CC(C)C)NC(=O)[C@H](CCCNC(=N)N)NC(=O)[C@H](CCC(N)=O)NC(=O)[C@@H](NC(=O)[C@H](C)NC(=O)[C@@H]1CSSC[C@H](NC(=O)[C@H](Cc2c[nH]cn2)NC(=O)[C@H](Cc2c[nH]cn2)NC(=O)[C@H](Cc2c[nH]cn2)NC(=O)CC[C@H](NC(=O)CCCCCCCCCCCCCCCCCCC(=O)O)C(=O)O)C(=O)N[C@@H](CC(N)=O)C(=O)N[C@@H]([C@@H](C)O)C(=O)N[C@@H](C)C(=O)N[C@@H]([C@@H](C)O)C(=O)N1)[C@@H](C)O)C(=O)N[C@@H](CC(C)C)C(=O)N1CCC[C@H]1C(=O)N1CCC[C@H]1C(=O)N[C@H](C(=O)N[C@@H](CC(N)=O)C(=O)N[C@H](C(=O)NCC(=O)N[C@@H](CO)C(=O)N[C@@H](CCC(=O)O)C(=O)N[C@H](C(=O)N[C@@H](Cc1ccc(O)cc1)C(N)=O)[C@@H](C)O)C(C)C)[C@@H](C)O [Example 63, N-alpha-[(S)-4-Carboxy-4-(19-carboxynonadecanoylamino)butyryl]-His-His-[His1,Glu14,His17,Ser21,Glu35]-pramlintide] ({C20 diacid-γGlu}-HHHCNTATCATQRLAEFLHHSSSNFGPILPPTNVGSETY-NH2; disulfide 4-9 (inferred); C-terminus assumed) |
| 0.153 | 0.0945 | > 200 | 189 (≈ 835 µg/mL) | – | 91 (≈ 402 µg/mL) | 136 (≈ 601 µg/mL) | > 200 | > 200 | > 200 | > 200 | > 200 | 6 | – | CC(C)C[C@H](NC(=O)[C@H](CCCNC(=N)N)NC(=O)[C@H](CCC(N)=O)NC(=O)[C@@H](NC(=O)[C@H](C)NC(=O)[C@@H]1CSSC[C@H](NC(=O)[C@H](CCCCN)NC(=O)CC[C@H](NC(=O)CCCCCCCCCCCCCCCCCCC(=O)O)C(=O)O)C(=O)N[C@@H](CC(N)=O)C(=O)N[C@@H]([C@@H](C)O)C(=O)N[C@@H](C)C(=O)N[C@@H]([C@@H](C)O)C(=O)N1)[C@@H](C)O)C(=O)N[C@@H](C)C(=O)N[C@@H](CCC(=O)O)C(=O)N[C@@H](Cc1ccccc1)C(=O)N[C@@H](CC(C)C)C(=O)N[C@@H](Cc1c[nH]cn1)C(=O)N[C@@H](Cc1c[nH]cn1)C(=O)N[C@@H](CO)C(=O)N[C@@H](CO)C(=O)N[C@@H](CC(N)=O)C(=O)N[C@@H](CC(N)=O)C(=O)N[C@@H](Cc1ccccc1)C(=O)NCC(=O)N[C@@H](C)C(=O)N1CCC[C@H]1C(=O)N[C@@H](CC(C)C)C(=O)N[C@@H](CO)C(=O)N[C@@H](CO)C(=O)N[C@H](C(=O)N[C@@H](CC(N)=O)C(=O)N[C@H](C(=O)NCC(=O)N[C@@H](CO)C(=O)N[C@@H](Cc1c[nH]cn1)C(=O)N[C@H](C(=O)N[C@@H](Cc1ccc(O)cc1)C(N)=O)[C@@H](C)O)C(C)C)[C@@H](C)O [Example 64, N-alpha-[(S)-4-Carboxy-4-(19-carboxynonadecanoylamino)butyryl]-[Glu14,His17,Ala25,Pro26,Ser28,Ser29,His35]-pramlintide] ({C20 diacid-γGlu}-KCNTATCATQRLAEFLHHSSNNFGAPLSSTNVGSHTY-NH2; disulfide 2-7 (inferred)) |
| 0.0965 | 0.115 | > 200 | 166 (≈ 789 µg/mL) | – | 15 (≈ 71.3 µg/mL) | 24 (≈ 114 µg/mL) | 60 (≈ 285 µg/mL) | > 200 | > 200 | > 200 | > 200 | >45 | >45 | CC[C@H](C)[C@H](NC(=O)[C@@H]1CCCN1C(=O)CNC(=O)[C@H](Cc1ccccc1)NC(=O)[C@H](CC(N)=O)NC(=O)[C@H](CC(N)=O)NC(=O)[C@H](CO)NC(=O)[C@H](CO)NC(=O)[C@H](Cc1c[nH]cn1)NC(=O)[C@H](Cc1c[nH]cn1)NC(=O)[C@H](CC(C)C)NC(=O)[C@H](Cc1ccccc1)NC(=O)[C@H](CCC(=O)O)NC(=O)[C@H](C)NC(=O)[C@H](CC(C)C)NC(=O)[C@H](CCCNC(=N)N)NC(=O)[C@H](CCC(N)=O)NC(=O)[C@@H](NC(=O)[C@H](C)NC(=O)[C@@H]1CSSC[C@H](NC(=O)[C@H](CCCCN)NC(=O)[C@H](Cc2c[nH]cn2)NC(=O)[C@H](Cc2c[nH]cn2)NC(=O)CC[C@H](NC(=O)CCCCCCCCCCCCCCCCCCC(=O)O)C(=O)O)C(=O)N[C@@H](CC(N)=O)C(=O)N[C@@H]([C@@H](C)O)C(=O)N[C@@H](C)C(=O)N[C@@H]([C@@H](C)O)C(=O)N1)[C@@H](C)O)C(=O)N[C@@H](CC(C)C)C(=O)N1CCC[C@H]1C(=O)N1CCC[C@H]1C(=O)N[C@H](C(=O)N[C@@H](CC(N)=O)C(=O)N[C@H](C(=O)NCC(=O)N[C@@H](CO)C(=O)N[C@@H](Cc1c[nH]cn1)C(=O)N[C@H](C(=O)N[C@@H](Cc1ccc(O)cc1)C(N)=O)[C@@H](C)O)C(C)C)[C@@H](C)O [Example 67, N-alpha-[(S)-4-Carboxy-4-(19-carboxynonadecanoylamino)butyryl]-His-His-[Glu14,His17,His35]-pramlintide] ({C20 diacid-γGlu}-HHKCNTATCATQRLAEFLHHSSNNFGPILPPTNVGSHTY-NH2; disulfide 4-9 (inferred); C-terminus assumed) |
